Here are results for 1 compound from PMC5218480 (PLoS ONE, 2017).

The assay relates to MV-4-11 cells. As to the kind of experiment: Gene expression microarray analysis (Affymetrix PrimeView) and GSEA. The arrangement: RFU PODN (11730768_x_at) / Fold change /veh PODN (11730768_x_at) / RFU LINC00158 (11744669_a_at) / Fold change /veh LINC00158 (11744669_a_at) / RFU DUSP10 (11751237_a_at) / Fold change /veh DUSP10 (11751237_a_at) / RFU ID3 (11757404_x_at) / Fold change /veh ID3 (11757404_x_at) / RFU PLEKHG5 (11737974_s_at) / Fold change /veh PLEKHG5 (11737974_s_at) / RFU LRRC4B (11730491_at) / Fold change /veh LRRC4B (11730491_at) / RFU GIMAP4 (11747438_a_at) / Fold change /veh GIMAP4 (11747438_a_at) / RFU KRT8 (11758183_x_at) / Fold change /veh KRT8 (11758183_x_at) / RFU CNN1 (11734310_a_at) / Fold change /veh CNN1 (11734310_a_at) / RFU VPS37D (11726825_at) / Fold change /veh VPS37D (11726825_at) / RFU C10orf10 (11716522_x_at) / Fold change /veh C10orf10 (11716522_x_at) / RFU KIR2DL2 /// KIR2DL4 /// KIR2DL5A /// KIR2DL5B /// KIR2DS1 /// KIR2DS2 /// KIR2DS3 /// KIR2DS4 /// KIR3DL3 /// KIR3DL3 /// KIR3DS1 (11738374_at) / Fold change /veh KIR2DL2 /// KIR2DL4 /// KIR2DL5A /// KIR2DL5B /// KIR2DS1 /// KIR2DS2 /// KIR2DS3 /// KIR2DS4 /// KIR3DL3 /// KIR3DL3 /// KIR3DS1 (11738374_at) / RFU C1QL1 (11718748_at) / Fold change /veh C1QL1 (11718748_at) / RFU TMPRSS4 (11747572_a_at) / Fold change /veh TMPRSS4 (11747572_a_at) / RFU HAMP (11756126_x_at) / Fold change /veh HAMP (11756126_x_at) / RFU RNFT2 (11725882_a_at) / Fold change /veh RNFT2 (11725882_a_at) / RFU NR4A2 (11747474_a_at) / Fold change /veh NR4A2 (11747474_a_at) / RFU ABCC12 (11746883_a_at) / Fold change /veh ABCC12 (11746883_a_at) / RFU TMEM136 (11760407_x_at) / Fold change /veh TMEM136 (11760407_x_at) / RFU CLDN22 /// WWC2 (11732394_at) / Fold change /veh CLDN22 /// WWC2 (11732394_at) / RFU HLA-DPB1 (11760878_x_at) / Fold change /veh HLA-DPB1 (11760878_x_at) / RFU SPINT1 (11716480_a_at) / Fold change /veh SPINT1 (11716480_a_at) / RFU GAP43 (11754022_s_at) / Fold change /veh GAP43 (11754022_s_at) / RFU A4GNT (11735810_at) / Fold change /veh A4GNT (11735810_at) / RFU PRB3 (11715151_x_at) / Fold change /veh PRB3 (11715151_x_at) / RFU TUBB4B (11761932_at) / Fold change /veh TUBB4B (11761932_at) / RFU CAPN14 (11732068_a_at) / Fold change /veh CAPN14 (11732068_a_at) / RFU TMCC2 (11721928_a_at) / Fold change /veh TMCC2 (11721928_a_at) / RFU IRGQ (11745062_a_at) / Fold change /veh IRGQ (11745062_a_at) / RFU FAM174B (11720279_a_at) / Fold change /veh FAM174B (11720279_a_at) / RFU TMPRSS4 (11748680_a_at) / Fold change /veh TMPRSS4 (11748680_a_at) / RFU FAM212B (11763350_a_at) / Fold change /veh FAM212B (11763350_a_at) / RFU PLEKHG5 (11743358_a_at) / Fold change /veh PLEKHG5 (11743358_a_at) / RFU ZSCAN30 (11745921_a_at) / Fold change /veh ZSCAN30 (11745921_a_at) / RFU CMKLR1 (11741424_a_at) / Fold change /veh CMKLR1 (11741424_a_at) / RFU LOC101060620 /// MAPK8IP1 (11723275_at) / Fold change /veh LOC101060620 /// MAPK8IP1 (11723275_at) / RFU SPTSSB (11747773_x_at) / Fold change /veh SPTSSB (11747773_x_at) / RFU PRSS12 (11739890_at) / Fold change /veh PRSS12 (11739890_at) / RFU BIN1 (11741810_x_at) / Fold change /veh BIN1 (11741810_x_at) / RFU WNT11 (11732464_a_at) / Fold change /veh WNT11 (11732464_a_at) / RFU C10orf10 (11716521_a_at) / Fold change /veh C10orf10 (11716521_a_at) / RFU C5orf56 (11738089_at) / Fold change /veh C5orf56 (11738089_at) / RFU CYB561 (11721691_x_at) / Fold change /veh CYB561 (11721691_x_at) / RFU ANKRD19P (11752326_a_at) / Fold change /veh ANKRD19P (11752326_a_at) / RFU OR2T12 /// OR2T33 /// OR2T8 (11738714_s_at) / Fold change /veh OR2T12 /// OR2T33 /// OR2T8 (11738714_s_at) / RFU VCAN (11748164_a_at) / Fold change /veh VCAN (11748164_a_at) / RFU JSRP1 (11732532_at) / Fold change /veh JSRP1 (11732532_at) / RFU KRTAP10-11 (11738290_x_at) / Fold change /veh KRTAP10-11 (11738290_x_at) / RFU MYO3A (11730013_a_at) / Fold change /veh MYO3A (11730013_a_at) / RFU EBF3 (11725865_a_at) / Fold change /veh EBF3 (11725865_a_at) / RFU CAMK2N1 (11719241_x_at) / Fold change /veh CAMK2N1 (11719241_x_at) / RFU C5orf56 (11738088_a_at) / Fold change /veh C5orf56 (11738088_a_at) / RFU OLFML3 (11715873_a_at) / Fold change /veh OLFML3 (11715873_a_at) / RFU LOC100653217 /// NTM (11731650_a_at) / Fold change /veh LOC100653217 /// NTM (11731650_a_at) / RFU MAPK11 (11762145_a_at) / Fold change /veh MAPK11 (11762145_a_at) / RFU FIZ1 (11724087_x_at) / Fold change /veh FIZ1 (11724087_x_at) / RFU OASL (11726364_x_at) / Fold change /veh OASL (11726364_x_at) / RFU SOX15 (11748057_x_at) / Fold change /veh SOX15 (11748057_x_at) / RFU CD79A (11719716_a_at) / Fold change /veh CD79A (11719716_a_at) / RFU HIST1H1D (11736915_at) / Fold change /veh HIST1H1D (11736915_at) / RFU CASKIN2 (11723855_a_at) / Fold change /veh CASKIN2 (11723855_a_at) / RFU LOC730098 (11760151_x_at) / Fold change /veh LOC730098 (11760151_x_at) / RFU OR4N2 (11742367_at) / Fold change /veh OR4N2 (11742367_at) / RFU PRRT2 (11749266_a_at) / Fold change /veh PRRT2 (11749266_a_at) / RFU SNX32 (11753110_a_at) / Fold change /veh SNX32 (11753110_a_at) / RFU CDHR5 (11726645_a_at) / Fold change /veh CDHR5 (11726645_a_at) / RFU RCAN1 (11760418_a_at) / Fold change /veh RCAN1 (11760418_a_at) / RFU FAM167A (11723789_a_at) / Fold change /veh FAM167A (11723789_a_at) / RFU FAM26E (11764081_at) / Fold change /veh FAM26E (11764081_at) / RFU ISYNA1 (11749810_s_at) / Fold change /veh ISYNA1 (11749810_s_at) / RFU ACY1 (11761880_at) / Fold change /veh ACY1 (11761880_at) / RFU 11764098_at / Fold change /veh 11764098_at / RFU SAMD14 (11745864_x_at) / Fold change /veh SAMD14 (11745864_x_at) / RFU NPB (11741838_a_at) / Fold change /veh NPB (11741838_a_at) / RFU TMPRSS6 (11731388_a_at) / Fold change /veh TMPRSS6 (11731388_a_at) / RFU KRTAP10-2 (11738614_at) / Fold change /veh KRTAP10-2 (11738614_at) / RFU ARHGAP8 /// PRR5-ARHGAP8 (11727945_x_at) / Fold change /veh ARHGAP8 /// PRR5-ARHGAP8 (11727945_x_at) / RFU KRTAP5-7 /// NADSYN1 (11734609_at) / Fold change /veh KRTAP5-7 /// NADSYN1 (11734609_at) / RFU RASL12 (11751679_a_at) / Fold change /veh RASL12 (11751679_a_at) / RFU CDKN2B (11736163_a_at) / Fold change /veh CDKN2B (11736163_a_at) / RFU PRF1 (11729649_at) / Fold change /veh PRF1 (11729649_at) / RFU, ZNF638 /// ZNF638-IT1 / Fold change vs veh, ZNF638 /// ZNF638-IT1 / RFU, PANK3 / Fold change vs veh, PANK3 / RFU, SH3YL1 / Fold change vs veh, SH3YL1 / RFU, ZEB2 / Fold change vs veh, ZEB2 / RFU, NRIP1 / Fold change vs veh, NRIP1 / RFU, PTTG1IP / Fold change vs veh, PTTG1IP / RFU, CAPN2 / Fold change vs veh, CAPN2 / RFU, MED14 / Fold change vs veh, MED14 / RFU, SNORA58 / Fold change vs veh, SNORA58 / RFU, C1orf63 / Fold change vs veh, C1orf63 / RFU, LRRFIP1 / Fold change vs veh, LRRFIP1 / RFU, NDUFAF7 / Fold change vs veh, NDUFAF7 / RFU, SLC12A2 / Fold change vs veh, SLC12A2 / RFU, IBTK / Fold change vs veh, IBTK / RFU, ESF1 / Fold change vs veh, ESF1 / Fold change vs veh, TMEM50B / RFU, TAOK1 / Fold change vs veh, TAOK1 / RFU, ACBD3 / Fold change vs veh, ACBD3 / RFU, TMA16 / Fold change vs veh, TMA16 / RFU, RWDD3 / Fold change vs veh, RWDD3 / RFU, BCAT1 / Fold change vs veh, BCAT1 / RFU, EDEM3 / Fold change vs veh, EDEM3 / RFU, TMEM33 / Fold change vs veh, TMEM33 / RFU, WDR75 / Fold change vs veh, WDR75 / RFU, AHCTF1 / Fold change vs veh, AHCTF1 / RFU, TFRC / Fold change vs veh, TFRC / RFU, ZDHHC17 / Fold change vs veh, ZDHHC17 / RFU, NOM1 / Fold change vs veh, NOM1 / RFU, ARL8B / Fold change vs veh, ARL8B / RFU, ZBTB11 / Fold change vs veh, ZBTB11 / RFU, TAMM41 / Fold change vs veh, TAMM41 / RFU, KIAA1704 /// LOC100996395 / Fold change vs veh, KIAA1704 /// LOC100996395 / RFU, ING1 / Fold change vs veh, ING1 / RFU, TRMT61B / Fold change vs veh, TRMT61B / RFU, FUBP3 / Fold change vs veh, FUBP3 / RFU, TP53 / Fold change vs veh, TP53 / RFU, TNKS2 / Fold change vs veh, TNKS2 / RFU, ZFP14 / Fold change vs veh, ZFP14 / RFU, ACTR2 / Fold change vs veh, ACTR2 / RFU, PPP3R1 / Fold change vs veh, PPP3R1 / RFU, PIK3R1 / Fold change vs veh, PIK3R1 / RFU, HNRNPA1 / Fold change vs veh, HNRNPA1 / RFU, RNF170 / Fold change vs veh, RNF170 / RFU, ZNF28 / Fold change vs veh, ZNF28 / RFU, RNGTT / Fold change vs veh, RNGTT / RFU, OGT / Fold change vs veh, OGT / RFU, BRD1 / Fold change vs veh, BRD1 / RFU, MARS / Fold change vs veh, MARS / RFU, ZNF655 / Fold change vs veh, ZNF655 / RFU, FAHD1 / Fold change vs veh, FAHD1 / RFU, BDP1 / Fold change vs veh, BDP1 / RFU, LRRCC1 / Fold change vs veh, LRRCC1 / RFU, ARID1A / Fold change vs veh, ARID1A / RFU, ZNF146 / Fold change vs veh, ZNF146 / RFU, ZNF330 / Fold change vs veh, ZNF330 / RFU, GPN3 / Fold change vs veh, GPN3 / RFU, C9orf123 / Fold change vs veh, C9orf123 / RFU, N4BP2L2 / Fold change vs veh, N4BP2L2 / RFU, ARFIP1 / Fold change vs veh, ARFIP1 / RFU, FAM179B / Fold change vs veh, FAM179B / RFU, BCL10 / Fold change vs veh, BCL10 / RFU, UHRF1BP1L / Fold change vs veh, UHRF1BP1L / RFU, BET1 / Fold change vs veh, BET1 / RFU, CNOT2 / Fold change vs veh, CNOT2 / RFU, ZNF268 / Fold change vs veh, ZNF268 / Fold change vs veh, ZNF507 / RFU, DGCR2 / Fold change vs veh, DGCR2 / RFU, WDSUB1 / Fold change vs veh, WDSUB1 / Fold change vs veh, HSP90B1 /// MIR3652 / RFU, ADSS / Fold change vs veh, ADSS / RFU, GK / Fold change vs veh, GK / RFU, ZNF148 / Fold change vs veh, ZNF148 / RFU, TAF9 / Fold change vs veh, TAF9 / RFU, SLC1A5 / Fold change vs veh, SLC1A5 / RFU, SLMO2 / Fold change vs veh, SLMO2 / RFU, ABCC4 / Fold change vs veh, ABCC4 / RFU, LOC101060439 /// RAP1B / Fold change vs veh, LOC101060439 /// RAP1B / RFU, RFX7 / Fold change vs veh, RFX7 / RFU, GTPBP10 / Fold change vs veh, GTPBP10 / RFU, CNEP1R1 / Fold change vs veh, CNEP1R1 / RFU, BIVM-ERCC5 /// ERCC5 / Fold change vs veh, BIVM-ERCC5 /// ERCC5 / RFU, ILF3 / Fold change vs veh, ILF3 / RFU 11762660_at / Fold change /veh 11762660_at / RFU VCAN (11757783_s_at) / Fold change /veh VCAN (11757783_s_at) / RFU DDX43 (11728927_at) / Fold change /veh DDX43 (11728927_at) / RFU KRT8 (11758188_x_at) / Fold change /veh KRT8 (11758188_x_at) / RFU NKD1 (11759106_at) / Fold change /veh NKD1 (11759106_at) / RFU SRD5A1 (11742802_a_at) / Fold change /veh SRD5A1 (11742802_a_at) / RFU TPSAB1 /// TPSB2 (11721975_s_at) / Fold change /veh TPSAB1 /// TPSB2 (11721975_s_at) / RFU GSTM3 (11746129_a_at) / Fold change /veh GSTM3 (11746129_a_at) / RFU IL23R (11737362_x_at) / Fold change /veh IL23R (11737362_x_at) / RFU TMEM51 (11727254_a_at) / Fold change /veh TMEM51 (11727254_a_at) / RFU PIWIL2 (11732686_x_at) / Fold change /veh PIWIL2 (11732686_x_at) / RFU ORM1 (11744905_x_at) / Fold change /veh ORM1 (11744905_x_at) / RFU CCDC152 (11743942_at) / Fold change /veh CCDC152 (11743942_at) / RFU ECM1 (11717891_a_at) / Fold change /veh ECM1 (11717891_a_at) / RFU IL23R (11748794_a_at) / Fold change /veh IL23R (11748794_a_at) / RFU TNFAIP8L3 (11732012_x_at) / Fold change /veh TNFAIP8L3 (11732012_x_at) / RFU MBOAT4 (11741988_at) / Fold change /veh MBOAT4 (11741988_at) / RFU 11764193_at / Fold change /veh 11764193_at / RFU TMEM53 (11763286_at) / Fold change /veh TMEM53 (11763286_at) / RFU MAGEB2 (11727129_at) / Fold change /veh MAGEB2 (11727129_at) / RFU TMEM200A (11744735_a_at) / Fold change /veh TMEM200A (11744735_a_at) / RFU CCDC152 (11751479_a_at) / Fold change /veh CCDC152 (11751479_a_at) / RFU FAM211A (11726209_a_at) / Fold change /veh FAM211A (11726209_a_at) / RFU RGS16 (11746705_a_at) / Fold change /veh RGS16 (11746705_a_at) / RFU VCAN (11755009_s_at) / Fold change /veh VCAN (11755009_s_at) / RFU RHOB (11743442_s_at) / Fold change /veh RHOB (11743442_s_at) / RFU RGS16 (11720943_a_at) / Fold change /veh RGS16 (11720943_a_at) / RFU RGS16 (11720944_at) / Fold change /veh RGS16 (11720944_at) / RFU, VPS4B / Fold change vs veh, VPS4B / RFU, CREB1 / Fold change vs veh, CREB1 / RFU, DNAJC13 / Fold change vs veh, DNAJC13 / RFU, GNAQ / Fold change vs veh, GNAQ / RFU, CDK5R1 / Fold change vs veh, CDK5R1 / RFU, ZRANB3 / Fold change vs veh, ZRANB3 / RFU, CUL4A / Fold change vs veh, CUL4A / RFU, CCNY / Fold change vs veh, CCNY / RFU, UFL1 / Fold change vs veh, UFL1 / RFU, COG3 / Fold change vs veh, COG3 / RFU, DIAPH2 / Fold change vs veh, DIAPH2 / RFU, SKA2 / Fold change vs veh, SKA2 / RFU, AFF3 / Fold change vs veh, AFF3 / RFU, LMF1 / Fold change vs veh, LMF1 / RFU, IPO11 / Fold change vs veh, IPO11 / RFU, DFFB / Fold change vs veh, DFFB / RFU, FOXP1 / Fold change vs veh, FOXP1 / RFU, CARD8 / Fold change vs veh, CARD8 / RFU, STRN3 / Fold change vs veh, STRN3 / RFU, ADK / Fold change vs veh, ADK / RFU, RASSF2 / Fold change vs veh, RASSF2 / RFU, WIPF1 / Fold change vs veh, WIPF1 / RFU, LARP1B / Fold change vs veh, LARP1B / RFU, RASA1 / Fold change vs veh, RASA1 / RFU, RB1 / Fold change vs veh, RB1 / RFU, PPFIA1 / Fold change vs veh, PPFIA1 / RFU, MAT2A / Fold change vs veh, MAT2A / RFU, CCT5 / Fold change vs veh, CCT5 / RFU, WDR92 / Fold change vs veh, WDR92 / RFU, CUX1 / Fold change vs veh, CUX1 / RFU, TTC7A / Fold change vs veh, TTC7A / RFU, TMEM135 / Fold change vs veh, TMEM135 / RFU, DEPTOR / Fold change vs veh, DEPTOR / RFU, CPM / Fold change vs veh, CPM / RFU, DNAJB6 / Fold change vs veh, DNAJB6 / RFU, CACNA2D3 / Fold change vs veh, CACNA2D3 / RFU, DTX4 / Fold change vs veh, DTX4 / RFU, TFCP2 / Fold change vs veh, TFCP2 / RFU, GMCL1 /// GMCL1P1 / Fold change vs veh, GMCL1 /// GMCL1P1 / RFU, AEBP2 / Fold change vs veh, AEBP2 / RFU, SNHG1 /// SNORD22 /// SNORD25 /// SNORD26 /// SNORD27 /// SNORD28 /// SNORD29 /// SNORD31 / Fold change vs veh, SNHG1 /// SNORD22 /// SNORD25 /// SNORD26 /// SNORD27 /// SNORD28 /// SNORD29 /// SNORD31 / Fold change (Aza/veh), C12orf56 (ProbeSet 11735607_a_at) / Fold change (ACY-1035/veh), C12orf56 (ProbeSet 11735607_a_at) / Fold change (Aza/veh), FGFR1OP (ProbeSet 11751329_s_at) / Fold change (ACY-1035/veh), FGFR1OP (ProbeSet 11751329_s_at) / Fold change (Aza/veh), VPS36 (ProbeSet 11739960_a_at) / Fold change (ACY-1035/veh), VPS36 (ProbeSet 11739960_a_at) / RFU SYPL1 (11715823_x_at) / Fold change /veh SYPL1 (11715823_x_at) / RFU IGFBP7 (11715501_s_at) / Fold change /veh IGFBP7 (11715501_s_at) / RFU REEP3 (11722064_at) / Fold change /veh REEP3 (11722064_at) / RFU IGLL1 (11728026_x_at) / Fold change /veh IGLL1 (11728026_x_at): dose or concentration left out as unconfirmed. It counts as cell-based, human. The following applies: MV-4-11 cells, 48 hours.

In the case of `Nc1ccc(-c2cccs2)cc1NC(=O)c1ccc2c(c1)cc(C1CC1)n2CCN1CCOCC1` [ACY-1035], the “Fold change /veh KIR2DL2 /// KIR2DL4 /// KIR2DL5A /// KIR2DL5B /// KIR2DS1 /// KIR2DS2 /// KIR2DS3 /// KIR2DS4 /// KIR3DL3 /// KIR3DL3 /// KIR3DS1 (11738374_at)” value is recorded as 0.96.
